The values that follow are results of earlier work, collected in PMC8954523 (Pharmaceutics, 2022).

In brackets after ≈: the same amount, converted by molar mass.

The conditions of series [1]: ref 31; cited from earlier work.
The conditions of series [2]: 298.15 K; cited from earlier work.

With `CNC(=O)c1ccc(N2C(=S)N(c3cnc(C#N)c(C(F)(F)F)c3)C(=O)C23CCC3)cc1F` [apalutamide], the “log DCoct/w” value in series [1] is recorded as 3.90. Moreover, in series [2], the aqueous solubility (commonly how much of the substance goes into solution per volume) is 7.78 µM (≈ 3.71 µg/mL).
Turning to `CNC(=O)c1ccc(N2C(=S)N(c3ccc(C#N)c(C(F)(F)F)c3)C(=O)C2(C)C)cc1F` [enzalutamide], the “log DCoct/w” value in series [1] is on record as 4.02. The aqueous solubility in series [2] was 3.92 µM (≈ 1.82 µg/mL).
